Structures can show the parent of a compound that is named as a salt.
Key:
neurogenic bladder = conditions: applicant's earlier filing PCT/JP99/03343; cited from earlier work
[1] = system: patients suffering from lower urinary tract symptoms; experiment: Clinical test to patients suffering from lower urinary tract symptoms (twelve-week test); assay type: in vivo, human
Description: A clinical test was carried out under the following conditions using the patients suffering from lower urinary tract symptoms. Subjects: eighteen patients diagnosed as lower urinary tract symptoms, i.e. urinary disturbance without clear organic or neurological abnormality in lower urinary tract (15 males and 3 female, age: 57.2±14.2). Test drug and administering method: One capsule containing 0.2 mg of tamsulosin hydrochloride was orally administered once daily after breakfast for four weeks and, after that, the dose after 4 weeks was controlled in consideration of the following criterion, and the dose was orally administered once daily after breakfast. [table] Test period: twelve weeks (84 days)(4 weeks (28 days) for 8 males) Observed items: Evaluations and measurements were made for the following items before and after the administration. (1) Total Score for Subjective Symptoms Total scores for the following <1>˜<7>before and after the administration were obtained in the same way as in Test Example 1. <1>Feel of residual urine, <2>Urination within two hours, <3>Break of urinary stream, <4>Urgency, <5>Force of urinary stream, <6>Straining upon urination and <7>Frequency of urination at night. (2) QOL Index “How do you think if the present urinating state continues in future as well?” (3) Test on Functions <1>maximum urinary stream rate <2>average urinary stream rate

[2] = system: patients suffering from lower urinary tract symptoms; experiment: Clinical test to patients suffering from lower urinary tract symptoms (four-week test); assay type: in vivo, human; conditions: for Total score for subjective symptoms after the test: 0.2 mg capsule orally once daily after breakfast; for Changing Rate (%) of total score for subjective symptoms: 0.2 mg capsule orally once daily, after vs before the test
Description: A clinical test was carried out under the following conditions using the patients suffering from lower urinary tract symptoms. (cf. Chapter 1: Indexes for Evaluation of Prostatic Hypertrophy in “Guideline for Clinical Test for Urinary Disturbance” published by Iyaku Tosho Shuppan) Subjects: four patients diagnosed as lower urinary tract symptoms, i.e. urinary disturbance without clear organic or neurological abnormality in lower urinary tract (3 males and 1 female). Test drug and administering method: One capsule containing 0.2 mg of tamsulosin hydrochloride was orally administered once daily after breakfast. Test period: four weeks (28 days) Observed items: Evaluations and measurements were made for the following items before and after the administration. (1) Total Score for Subjective Symptoms Questioning was done to the patients for the following items and the total score was obtained. (2) QOL Index With regard to an index for quality of life (QOL), a questioning that “How do you think if the present urinary condition continues in future as well?” was done as a total diagnosis concerning the urinary disturbance and any of the following evaluations was collected.

[3] = Female (n = 3), after 4 week, 0.2 mg/day orally
[4] = Female (n = 3), after 12 week, 0.2 mg/day for 4 weeks, then 0.2 or 0.4 mg/day orally
[5] = Total (n = 10), after 12 week, 0.2 mg/day for 4 weeks, then 0.2 or 0.4 mg/day orally
[6] = Total (n = 18), after 4 week, 0.2 mg/day orally
[7] = male (n = 7), after 12 week, 0.2 mg/day for 4 weeks, then 0.2 or 0.4 mg/day orally
[8] = male (n = 15), after 4 week, 0.2 mg/day orally
[9] = avg. of four patients, four weeks

## CCOc1ccccc1OCCN[C@H](C)Cc1ccc(OC)c(S(N)(=O)=O)c1 [tamsulosin]
Neurogenic bladder
  Clinical efficacy for the therapy of neurogenic bladder: clinically effectively for the therapy of neurogenic bladder

## CCOc1ccccc1OCCN[C@H](C)Cc1ccc(OC)c(S(N)(=O)=O)c1 [tamsulosin hydrochloride]
[1]; [3]
  Changing Amt of Average urinary stream rate: +2.2 ± 1.8 ml/s
  Changing Amt of Maximum urinary stream rate: +3.8 ± 1.9 ml/s
  Changing Amt of QOL Index: −1.3 ± 1.2
  Changing Rate of Total score for subjective symptoms: −30.5 ± 16.9%
[1]; [4]
  Changing Amt of Average urinary stream rate: +2.1 ± 2.8 ml/s
  Changing Amt of Maximum urinary stream rate: +6.2 ± 6.0 ml/s
  Changing Amt of QOL Index: −3.0 ± 1.7
  Changing Rate of Total score for subjective symptoms: −37.4 ± 26.8%
[1]; [5]
  Changing Amt of Average urinary stream rate: +3.8 ± 2.5 ml/s
  Changing Amt of Maximum urinary stream rate: +7.3 ± 4.6 ml/s
  Changing Amt of QOL Index: −2.9 ± 1.7
  Changing Rate of Total score for subjective symptoms: −44.6 ± 32.1%
[1]; [6]
  Changing Amt of Average urinary stream rate: +2.0 ± 3.3 ml/s
  Changing Amt of Maximum urinary stream rate: +3.1 ± 6.7 ml/s
  Changing Amt of QOL Index: −1.6 ± 1.7
  Changing Rate of Total score for subjective symptoms: −40.9 ± 25.2%
[1]; after 12 weeks, decided by Guideline for Clinical Test for Urinary Disturbance
  effective rate (Degree of Improvement as a whole is more than "Useful"): 70.0%
[1]; [7]
  Changing Amt of Average urinary stream rate: +4.6 ± 2.2 ml/s
  Changing Amt of Maximum urinary stream rate: +7.8 ± 4.3 ml/s
  Changing Amt of QOL Index: −2.9 ± 1.9
  Changing Rate of Total score for subjective symptoms: −47.0 ± 35.6%
[1]; [8]
  Changing Amt of Average urinary stream rate: +1.9 ± 3.6 ml/s
  Changing Amt of Maximum urinary stream rate: +2.9 ± 7.4 ml/s
  Changing Amt of QOL Index: −1.6 ± 1.8
  Changing Rate of Total score for subjective symptoms: −43.0 ± 26.5%
[1]; twelve-week test
  Overall conclusion on efficacy (total score for subjective symptom, QOL index, test on functions): confirmed to be effective as a therapeutic agent for lower urinary tract symptoms
[2]; [9]
  Total score for subjective symptoms after the test: 13.3
  Changing Rate (%) of total score for subjective symptoms: −40.8%
[2]; four patients, average, after vs before administration, four weeks
  Improvement in QOL index: improvement of one point in average
[2]; four patients, 0.2 mg orally once daily, four weeks, scale 0 (quite satisfactory) to 6 (quite unsatisfactory), before administration 4.8
  QOL index, mean value after the administration: 3.8
[2]; four-week test, 0.2 mg orally once daily
  Overall conclusion on efficacy (total score for subjective symptom, QOL index): confirmed to be effective as a therapeutic agent for lower urinary tract symptoms
[2]; patient four, four weeks
  Total score for subjective symptoms after the test: 13
  Changing Rate (%) of total score for subjective symptoms: −48.0%
[2]; patient one, four weeks
  Total score for subjective symptoms after the test: 11
  Changing Rate (%) of total score for subjective symptoms: −26.7%
[2]; patient three, four weeks
  Total score for subjective symptoms after the test: 20
  Changing Rate (%) of total score for subjective symptoms: −23.1%
[2]; patient two, four weeks
  Total score for subjective symptoms after the test: 9
  Changing Rate (%) of total score for subjective symptoms: −65.4%

Reference: US20040072851A1, “Medicinal compositions for treating lower uropathy” (priority 2001, published 2004)
